Laboratory results: patent EP0353678B1, “FR-901154 and FR-901155 substances, a process for their production” (priority 1988, dated 1990)

What was measured:
[1] = Solubility (physical and chemical properties); assay type: physicochemical
Protocol: (23)/(D) [formula] : -74° (c = 1.8, CHCl₃) (8) Ultraviolet Absorption Spectrum: end absorption (9) Infrared Absorption Spectrum: [drawing 4] 3570, 3500, 2940, 2880, 2820, 1740, 1710, 1700, 1640, 1460, 1450, 1380, 1350, 1320, 1280, 1230, 1190, 1170, 1140, 1100, 1090, 1050, 1040, 1000, 990, 940, 910 cm⁻¹ (10) ¹³C Nuclear Magnetic Resonance Spectrum: δ(ppm, CDCl₃, 100MHz): [formula] [formula] (11) ¹H Nuclear Magnetic Resonance Spectrum: the chart of which being shown in Figure 3, (12) Thin Layer Chromatography: […]

[2] = test system: Aspergillus niger IFO 4417; assay: Antimicrobial activity against fungi, serial agar dilution method in Sabouraud agar; assay type: cell-based; parameters: unit not given here; details: 30°C for 24 hours
Protocol: Antimicrobial activities of the FR-901154 and FR-901155 Substances Antimicrobial activities of the FR-901154 and FR-901155 substances against various fungi were determined by a serial agar dilution method in a Sabouraud agar. Minimum inhibitory concentrations (MIC) were expressed in terms of »g/ml after incubation at 30°C for 24 hours. […]

## CCCC1C=C(C)CC(C)CC(OC)C2OC(O)(C(=O)C(=O)N3CCCCC3C(=O)OC(C(C)=CC3CCC(O)C(OC)C3)C(C)C(O)CC1=O)C(C)CC2OC (stereo not shown) [FR-901156, 1,14-dihydroxy-12-[2-(4-hydroxy-3-methoxycyclohexyl)-1-methylvinyl]-23,25-dimethoxy-13,19,21,27-tetramethyl-17-propyl-11,28-dioxa-4-azatricyclo[22.3.1.0^4,9]octacos-18-ene-2,3,10,16-tetraone]
[1]; methanol, ethanol, acetone, ethyl acetate, chloroform, diethyl ether, benzene and acetonitrile
  Solubility: Soluble
[1]; n-hexane and petroleum ether
  Solubility: Sparingly Soluble
[1]; water
  Solubility: Insoluble

## C=CCC1/C=C(\C)CC(C)CC(OC)C2OC(O)(C(=O)C(=O)N3CCCCC3C(=O)OC(/C(C)=C/C3CCC(O)C(O)C3)C(C)C(O)CC1=O)C(C)CC2OC (stereo not shown) [FR-901154]
[2]
  MIC Value: 0.025
